Type in all cases: cell-based
Test [1] has as its system latent HIV (HIV LTR-driven transcription) in J-Lat A1 cells. To be noted: for reactivation of latent HIV by epigenetic modifiers: 30 mM Na-Cro, 500 nM SAHA, 2 μM GSK343 or 5 μM AZA-dc; for reactivation of latent HIV by epigenetic modifiers / increase in reactivation of latent HIV in combination with Na-Cro as compared to single treatment: RT-qPCR; for increase in reactivation of latent HIV in combination with Na-Cro as compared to single treatment: J-Lat A1 cells pretreated with Na-Cro, then the LRA added. On the procedure: (§1) Cell culture: J-Lat Al cells (derived from Jurkat cells harboring HIV LTR-Tat-GFP gene) and U1 cells (promonocytic cell line harboring one copy of HIV genome with defective tat gene) were obtained from NIH AIDS Reagent Program and cultured at 37° C. with 5% CO2 in RPM11640 medium containing 10% FBS and 1% penicillin-streptomycin as previously described (see G. Jiang, et al. PLoS Pathogens 11, e1005066 (2015)).
(§2) For inhibiting ACSS2 and crotonylation, cells were pretreated with ACSS2 inhibitor, AR12 (SELLECK CHEMICALS™, Houston, Tex.), for 30 minutes, followed by Na-Cro treatment for 4 or 18 hours.
(§3) Real-Time PCR Analysis: HIV gene expression was measured using real-time PCR in J-Lat Al cells treated with LRAs. Total nucleic acid was extracted using RNEASY™ Kit, genomic DNA digested using DNase I and total RNA reverse transcribed using Superscript III to synthesize cDNA. […] […] TAMRA-3′ (SEQ ID NO:3).
In general terms: Quantitative PCR measures a nucleic acid by following its amplification.

The test system of test [2] is HIV LTR in J-Lat A1 cells. In words: Chromatin immunoprecipitation (ChIP) at the HIV LTR. The following applies: pretreatment with AR12, then Na-Cro. An excerpt: FIG. 2 is a series of images and graphs showing that histone crotonylation by sodium crotonate addition re-programs histone tails at the HIV LTR. Panel A illustrates that Na-Cro addition increased global expression of H3K4Cro, H3K4Ac, and H3K18Ac while decreasing H3K27Me3. Panel B illustrates expression of transcription factors after Na-Cro addition in J-Lat Al cells. Panels C-E illustrate that Na-Cro addition re-programmed histone tails at the HIV LTR. Chromatin immunoprecipitation (ChIP) assay was performed by using anti-H3K4Cr, anti-H3K4Ac, and anti-H3K27Me3 antibodies after J-Lat Al cells were treated with 30 mM Na-Cro for 4 hours. PCR primers were specific for the HIV LTR region.
(§4) FIG. 7 is a series of graphs showing that induction of de-crotonylation of histone tail at HIV LTR is independent of SIRTs. Panel A illustrates that J-Lat Al cells were pre-treated with either 50 μM RSV or 1 mM NAM, followed by 30 mM Na-Cro addition to reactivate latent HIV expression. Untreated controls were compared with positive controls involving individual treatment of Na-Cro, RSV, or NAM. *, p<0.05; **, p<0.01 compared with control treatment. #, p<0.05 compared with Na-Cro treatment. Panel B illustrates that gene expression of sirt1 or sirt3 was measured by RT-qPCR in J-Lat Al cells treated with either 25 μM RSV, 50 μM RSV, or 1 mM NAM. *, p<0.05 and **, p<0.01 compared with control treatment. Panels C and D illustrate that histone crotonylation induces binding of SIRT3 and SIRT1 at the HIV LTR. J-Lat Al cells were treated with 30 mM Na-Cro for 4 hours and analyzed by ChIP assays using anti-SIRT1 or anti-SIRT3 antibodies. *, p<0.05 compared with control treatment.
Chromatin Immunoprecipitation (ChIP): J-Lat Al cells (2.5 to 5 million) were utilized in ChIP assays with anti-H3K18Ac, anti-H3K4Cr, anti-H3K27Me3, anti-H3K4Ac, anti-SIRT3 (CELL SIGNALING TECHNOLOGY®), and anti-SIRT1 (CELL SIGNALING TECHNOLOGY®) antibodies. ChIP assays were performed using […]® Kit from CELL SIGNALING TECHNOLOGY® as per the manufacturer's recommendations. Samples were cross-linked using formaldehyde and 150-1000 bp fragments were made using Micrococcal Nuclease digestion and 7 cycles of 30 seconds on/30 seconds off sonication. Antibodies were used to probe respective proteins. Purification of DNA was performed using the […]® Kit Protocol. Purified ChIP DNA was used in SYBR® Green qPCR using ChIP primers specific for HIV LTR.

For test [3], the system named is latent HIV in primary CD4+ T cells from HIV-infected patients under suppressive ART. Description: HIV transcription by ddPCR in primary CD4+ T cells from HIV-infected patients. To be noted: 6 hours. The method, then:
Panels A-C illustrate that primary CD4+ T cells were treated with […] PMA 2 plus 2 μg/ml ionomycin, 12 nM PEP005, 40 mM Na-Cro, or 12 nM PEP005 combined with 40 mM Na-Cro for 6 hours. Viral transcription from total RNA was analyzed by RT-ddPCR with primers targeting initiation (TAR region) (see panel A), elongation (long LTR) (see panel B), or full transcription (poly A region) (see panel C) of the HIV genome. Panel D illustrates a working model of epigenetic regulation of HIV latency/transcription by histone crotonylation.
To validate this finding in the ex vivo primary CD4+ T cells from patients the peripheral blood samples from 6 HIV-infected patients under suppressive ART were obtained. They had undetectable plasma viral load (<20 copies/ml plasma) and >400 CD4+ T cell number per […] (see Table 1). Primary CD4+ T cells were treated with PMA/Ionomycin, PEP005, Na-Cro, or PEP005 in combination with Na-Cro for 6 hours. HIV transcription following reactivation was measured by digital droplet PCR (ddPCR) targeting TAR region (initiation), long LTR region (elongation), or Poly A region (full transcription) of HIV genome (see G. Jiang, et al. PLoS pathogens 11, e1005066 (2015); P. Kaiser, et al. Journal of virological methods 242, 1-8 (2017); and L. Shan, et al. Journal of Virology 87, 6521-6525 (2013)).
Primary CD4+ T Cell Isolation, Treatment, and Digital Droplet PCR Assays: Peripheral blood samples were obtained from HIV-infected individuals (age ranging from 46-62 years old) on suppressive ART for >8 years (n=6). The plasma viral loads were below the detective level (<20 copies/ml plasma) and the average CD4+ T cell number was 664.4±180.5 cells/ml. The primary CD4+ T cells were isolated using the EASYSEP™ kit ([…]™ Technologies Inc., Vancouver, BC, Canada) as previously described (see G. Jiang, et al. PLoS pathogens 11, el 005066 (2015) and G. Jiang, et al. AIDS 28, 1555-1566 (2014)). The purified CD4+ T cells were plated at a density of 0.5-1×10^6 cells and treated with Control, 200 ng/ml PMA plus 2 μM lonomycin, 12 nM PEP005, 40 mM Na-Cro, or 12 nM PEP005 plus 40 mM Na-Cro for 6 hours. Cell pellets were collected for RNA isolation. Initiation, elongation, or full transcription of HIV was analyzed with ddPCR assays as reported before (see G. Jiang, et al. PLoS pathogens 11, e1005066 (2015); P. Kaiser, et al. Journal of virological methods 242, 1-8 (2017); and L. Shan, et al. Journal of virology 87, 6521-6525 (2013)).

Another test deals with sirt3. In words: sirt3 gene expression by RT-qPCR in J-Lat A1 cells. To be noted: 25 μM or 50 μM RSV. The method, then: as §4
The subject of test [4] is latent HIV in resting CD4+ T cells from HIV-infected individuals under ART. Description: Quantitative Viral Outgrowth Assay (QVOA), p24 ELISA. The following applies: resting CD4+ T cells from 5 HIV-infected individuals under ART; ex vivo. The method, then: It was tested whether the histone crotonylation inducer, sodium crotonate, can reactivate latent HIV reservoirs from a patient under ART. Peripheral blood samples were obtained from 5 HIV-infected individuals with undetectable plasma viral loads and higher CD4+ T cell numbers (see Table 1). One million resting CD4+ T cells were treated with IL-2, PHA+IL-2, or IL-2+Na-Cro, and HIV p24 production was measured by QVOA using p24 ELISA as a measure of HIV reactivation.
Quantitative Viral Outgrowth Assay: Peripheral blood mononuclear cells (PBMC) were obtained from HIV-infected individuals on suppressive ART (n=5) by continuous-flow leukopheresis. Isolation of resting CD4+ T cells and quantification of replication competent virus was performed as previously described (see S. Dandekar, et al. Current HIV/AIDS reports 4, 10-15 (2007)). […] Cultures were scored as positive if p24 was detected at day 15 and was increased in concentration at day 19. […]
On the technique in general: ELISA stands for enzyme-linked immunosorbent assay.

A further test deals with latent HIV in U1 cells. In words: Reactivation of latent HIV in U1 cells by RT-qPCR. The method, then:
as §1, §2, §3

Where [5] appears, read: primary CD4+ T cells of 6 patients, 40 mM Na-Cro or 12 nM PEP005, ddPCR.

In the case of `NCC(=O)Nc1ccc(-n2nc(C(F)(F)F)cc2-c2ccc3c(ccc4ccccc43)c2)cc1` [AR12, reference compound], the “decrease in latent HIV reactivation by Na-Cro” value in test [1] (pretreatment with AR12 for 30 minutes, then Na-Cro) was greater than 60%. Further, the “histone crotonylation at HIV LTR” value in test [2] is given as “markedly dampened”.

With `Nc1ncn([C@H]2C[C@H](O)[C@@H](CO)O2)c(=O)n1` [AZA-dC], in test [1] (J-Lat A1 cells), the “reactivation of latent HIV by epigenetic modifiers” value is given as “minimally reactivated latent HIV”.

Turning to `CCCc1cc(C)[nH]c(=O)c1CNC(=O)c1cc(-c2ccnc(N3CCN(C)CC3)c2)cc2c1cnn2C(C)C` [GSK343], in test [1] (J-Lat A1 cells), the “synergistic effect on HIV reactivation in combination with Na-Cro” value is given as “did not show any synergistic effect” and the “reactivation of latent HIV by epigenetic modifiers” value is given as “minimally reactivated latent HIV”.

For `Cc1sc2c(c1C)C(c1ccc(Cl)cc1)=N[C@@H](CC(=O)OC(C)(C)C)c1nnc(C)n1-2` [JQ1], the “increase in reactivation of latent HIV in combination with Na-Cro as compared to single treatment” value (“increase in reactivation of latent HIV” for short) in test [1] was found to be 1.8 fold.

`NC(=O)c1cccnc1` [NAM, nicotinamide]: in test [1] (J-Lat A1 cells, 1 mM NAM pretreatment then 30 mM Na-Cro), the “viral reactivation after pretreatment” value was “less than 4 fold”.

In the case of `C/C=C(/C)C(=O)O[C@H]1C(C)=C[C@]23C(=O)[C@@H](C=C(CO)[C@@H](O)[C@]12O)[C@H]1[C@@H](C[C@H]3C)C1(C)C` [PEP005, ingenol-3-angelate], in test [3] (setting [5]), the “elongation of HIV transcripts (long LTR), patients responding” value is reported as 5 of 6 patient samples; the “full-length transcription of HIV (poly A region), patients responding” value is reported as 5 of 6 patient samples; the “initiation of HIV transcription (TAR region), patients responding” value is on record as “all six patients”. For the same compound, in test [3] (primary CD4+ T cells, 12 nM PEP005 combined with 40 mM Na-Cro, also higher than PMA/Ionomycin), the “reactivation of latent HIV, combination of Na-Cro with PEP005” value is reported as “greater reactivation of latent HIV than either agent alone”. Moreover, in test [1], the “increase in reactivation of latent HIV” value was determined as 8 fold.

Turning to `Oc1ccc(C=Cc2cc(O)cc(O)c2)cc1` [RSV, Resveratrol], the “crotonyl-CoA-mediated latent HIV reactivation after pretreatment” value in test [1] (J-Lat A1 cells, 50 μM RSV pretreatment then 30 mM Na-Cro, compared to crotonyl-CoA alone) was 27 fold. In addition, the “increase in expression of sirt3” value with sirt3 was “two to three”.

For `O=C(CCCCCCC(=O)Nc1ccccc1)NO` [SAHA, suberoylanilide hydroxamic acid], in test [1], the “increase in reactivation of latent HIV” value is listed as 2.0 fold. Further, the “HIV reactivation, pretreatment with SAHA followed by Na-Cro addition” value in test [1] (J-Lat A1 cells, 250 nM SAHA then 40 mM Na-Cro overnight) is “abolished the combination effect”; in the test with latent HIV in U1 cells (500 nM SAHA then 40 mM Na-Cro) it was “abolished the combination effect”. Also, the “reactivation of latent HIV by epigenetic modifiers” value in test [1] (J-Lat A1 cells) was “comparable capacity to reactivate latent HIV”. Also, the “replication-competent HIV recovered (HIV reactivation, QVOA)” value in test [4] was “able to flush out the latent HIV in these patient cells except for one patient”. For the same compound, the “HIV reactivation, pretreatment with Na-Cro then SAHA, compared with SAHA alone” value in the test on latent HIV in U1 cells (40 mM Na-Cro then 500 nM SAHA, overnight, real-time PCR) is reported as “enhanced SAHA-reactivation of latent HIV”.

On to `CCC/C=C/C=C/C(=O)O[C@H]1/C(=C/C(=O)OC)C[C@H]2C[C@H]([C@@H](C)O)OC(=O)C[C@H](O)C[C@@H]3C[C@H](OC(C)=O)C(C)(C)[C@](O)(C[C@@H]4C/C(=C/C(=O)OC)C[C@H](/C=C/C(C)(C)[C@]1(O)O2)O4)O3` [bryostatin-1], for which, in test [1], the “increase in reactivation of latent HIV” value was 3.3 fold.

(Values after patent US20230087766A1, “METHODS OF REACTIVATING LATENT HUMAN IMMUNODEFICIENCY VIRUS AND RELATED COMPOSITIONS” (priority 2017, published 2023).)
